Reference: patent US20060004428A1, “Pyrrolo (3,4-c) carbazole and pyrido (2,3-b) pyrrolo (3,4-e) indole derivatives, preparation method and pharmaceutical compositions containing same” (priority 2002, published 2006)

Key:
L1210 murine leukaemia = test: In vitro cytotoxicity, Microculture Tetrazolium Assay, L1210; assay type: cell-based; conditions: Mus musculus, exposure 4 doubling periods, or 48 hours, read-out: IC50, the concentration of cytotoxic agent which inhibits the proliferation of the treated cells by 50%
Protocol: (§1) Four cell lines were used: • L1210 murine leukaemia • A549 human non-small-cell lung carcinoma • HT29 human colon carcinoma • DU145 prostate carcinoma
(§2) L1210 murine leukaemia was used in vitro. The cells are cultured in RPMI 1640 complete culture medium containing 10% foetal calf serum, 2 mM glutamine, 50 units/ml of penicillin, 50 μg/ml of streptomycin and 10 mM Hepes, pH: 7.4. The cells are distributed on microplates and are exposed to the cytotoxic compounds for 4 doubling periods, or 48 hours. The number of viable cells is then quantified by a calorimetric assay, the Microculture Tetrazolium Assay (J. Carmichael et al., Cancer Res.; 47, 936-942 (1987)). The results are expressed as the IC50, the concentration of cytotoxic agent which inhibits the proliferation of the treated cells by 50%.

[1] = test system: A549 human non-small-cell lung carcinoma; test: In vitro cytotoxicity, Microculture Tetrazolium Assay, A549; assay type: cell-based; conditions: read-out: IC50, the concentration of cytotoxic agent which inhibits the proliferation of the treated cells by 50%
Protocol: as §1, §2

[2] = test system: HT29 human colon carcinoma; test: In vitro cytotoxicity, Microculture Tetrazolium Assay, HT29; assay type: cell-based; conditions: HT-29, read-out: IC50, the concentration of cytotoxic agent which inhibits the proliferation of the treated cells by 50%
Protocol: as §1, §2

DU145 prostate carcinoma = test: In vitro cytotoxicity, Microculture Tetrazolium Assay, DU145; assay type: cell-based; conditions: Homo sapiens, DU-145, read-out: IC50, the concentration of cytotoxic agent which inhibits the proliferation of the treated cells by 50%
Protocol: as §1, §2

## O=C1NC(=O)c2c1c1c3cc(Br)ccc3[nH]c1c1cccn21 [Example 7, 11-Bromopyrrolo[3′,4′:5,6]indolizino[8,7-b]indole-1,3(2H,8H)-dione]
other
  melting point: > 300 °C

## O=C1NC(=O)c2c1c1c3cc(Cl)ccc3[nH]c1c1cccn21 [Example 9, 11-Chloropyrrolo[3′,4′:5,6]indolizino[8,7-b]indole-1,3(2H,8H)-dione]
other
  melting point: 298 to 304 °C

## O=C1NC(=O)c2c1c1c3ccccc3[nH]c1c1cccn21 [Example 1, Pyrrolo[3′,4′:5,6]indolizino[8,7-b]indole-1,3(2H,8H)dione]
L1210 murine leukaemia
  IC50: 3.1 µM
[1]
  IC50: 1.99 µM
[2]
  IC50: 3.3 µM
DU145 prostate carcinoma
  IC50: 1.4 µM
other
  melting point: 218 to 220 °C

## CN1C(=O)c2c(n3cccc3c3[nH]c4ccccc4c23)C1=O [Example 2, 2-Methylpyrrolo[3′,4′:5,6]indolizino[8,7-b]indole-1,3(2H,8H)dione]
other
  melting point: 226 to 228 °C

## CN1C(=O)c2c(n3cncc3c3[nH]c4ncccc4c23)C1=O [Example 18, 2-Methylimidazo[1,5-a]pyrido[3′,2′:4,5]pyrrolo[2,3-c]pyrrolo[3,4-e]-Pyridine-1,3(2H,8H)-dione]
other
  melting point: 304 to 307 °C

## CN1C(=O)C2c3c([nH]c4ncccc34)-c3nccn3C2C1=O (stereo not shown) [Example 19, 6-Methyl-7a,12-dihydroimidazo[1,2-a]pyrido[3′,2′:4,5]pyrrolo[2,3-c]-pyrrolo[3,4-e]pyridine-5,7(4aH,6H)-dione]
other
  melting point: 222 to 224 °C

## O=C1NC(=O)c2c1c1c3cc(OCc4ccccc4)ccc3[nH]c1c1cccn21 [Example 3, 11-(Benzyloxy)pyrrolo[3′,4′:5,6]indolizino[8,7-b]indole-1,3(2H,8H)-dione]
other
  melting point: 275 °C

## CC(=O)OC[C@H]1O[C@@H](n2c3ncccc3c3c4c(n5cncc5c32)C(=O)N(C)C4=O)[C@H](OC(C)=O)[C@@H](OC(C)=O)[C@@H]1OC(C)=O [Example 21, 2-Methyl-8-(2,3,4,6-tetra-O-acetyl-β-D-glucopyranosyl)-imidazo-[1,5-a]pyrido[3′,2′:4,5]pyrrolo[2,3-c]pyrrolo[3,4-e]pyridine-1,3(2H,8H)-dione]
other
  melting point: 204 °C

## CN1C(=O)c2c(n3cccc3c3[nH]c4ccc(Br)cc4c23)C1=O [Example 8, 11-Bromo-2-methylpyrrolo[3′,4′:5,6]indolizino[8,7-b]indole-1,3(2H,8H)-dione]
other
  melting point: > 300 °C
